Source: US10428044B2, “3-amino-1,5,6,7-tetrahydro-4H-indol-4-ones” (Bayer Pharma Aktiengesellschaft, priority 2014, dated 2019)

What follows are compounds tested against (recombinant) catalytic domain of human Bub1 (amino acids 704-1085) (Homo sapiens (Human), UniProt O43683) (assay: Bub1 kinase assay (TR-FRET)). Conditions: ATP 10 μM final, peptide substrate 1 μM final, 60 min at 22° C., read-out: Biological Assay: Bub1 kinase assay median IC50.
Type: biochemical
Outline: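 Readout was TR-FRET between a Eu-labeled antibody complex recognizing phosphoserine and streptavidin-XL665 on the biotinylated peptide, after EDTA stop and 1 h at 22° C. The kinase reaction ran for 60 min at 22° C. Values are means or medians of repeat tests, from 4-parameter fits normalized to enzyme-free and inhibitor-free controls.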

Chain of (recombinant) catalytic domain of human Bub1 (amino acids 704-1085) (O43683 704-1085): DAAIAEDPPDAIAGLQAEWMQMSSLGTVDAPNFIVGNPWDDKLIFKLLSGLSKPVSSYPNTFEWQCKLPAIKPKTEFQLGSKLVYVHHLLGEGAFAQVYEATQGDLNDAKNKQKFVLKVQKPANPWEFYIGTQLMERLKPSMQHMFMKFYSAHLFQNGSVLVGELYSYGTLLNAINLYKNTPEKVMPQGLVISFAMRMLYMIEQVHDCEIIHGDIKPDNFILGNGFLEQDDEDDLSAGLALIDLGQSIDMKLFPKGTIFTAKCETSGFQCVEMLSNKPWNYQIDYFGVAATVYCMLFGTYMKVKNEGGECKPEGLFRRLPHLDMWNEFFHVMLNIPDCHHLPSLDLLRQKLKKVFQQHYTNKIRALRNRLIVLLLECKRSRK

| Compound | IC50 |
| --- | --- |
| CC1(C)CC(=O)c2c([nH]c(-c3ccncc3)c2Nc2cncc3ccccc23)C1 [Example 64, 3-(isoquinolin-4-ylamino)-6,6-dimethyl-2-(pyridin-4-yl)-1,5,6,7-tetrahydro-4H-indol-4-one] | 1820 nM |
| CC1(C)CC(=O)c2c([nH]c(-c3ccncc3)c2Nc2cccc(N)c2)C1 [Example 65, 3-[(3-aminophenyl)amino]-6,6-dimethyl-2-(pyridin-4-yl)-1,5,6,7-tetrahydro-4H-indol-4-one] | 525 nM |
| CC1(C)CC(=O)c2c([nH]c(-c3ccncc3)c2Nc2cnc3ccccc3c2)C1 [Example 66, 6,6-dimethyl-2-(pyridin-4-yl)-3-(quinolin-3-ylamino)-1,5,6,7-tetrahydro-4H-indol-4-one] | 2260 nM |
| CC1(C)CC(=O)c2c([nH]c(-c3ccncc3)c2Nc2ccc3occc3c2)C1 [Example 67, 3-(1-benzofuran-5-ylamino)-6,6-dimethyl-2-(pyridin-4-yl)-1,5,6,7-tetrahydro-4H-indol-4-one] | 87.1 nM |
| CC1(C)CC(=O)c2c([nH]c(-c3ccncc3)c2Nc2ccc3cc[nH]c3c2)C1 [Example 68, 3-(1H-indol-6-ylamino)-6,6-dimethyl-2-(pyridin-4-yl)-1,5,6,7-tetrahydro-4H-indol-4-one] | 84.2 nM |
| CC1(C)CC(=O)c2c([nH]c(-c3ccncc3)c2Nc2ccc3sccc3c2)C1 [Example 69, 3-(1-benzothiophen-5-ylamino)-6,6-dimethyl-2-(pyridin-4-yl)-1,5,6,7-tetrahydro-4H-indol-4-one] | 76.4 nM |
| CC1(C)CC(=O)c2c([nH]c(-c3ccncc3)c2Nc2ccc3[nH]ccc3c2)C1 [Example 70, 3-(1H-indol-5-ylamino)-6,6-dimethyl-2-(pyridin-4-yl)-1,5,6,7-tetrahydro-4H-indol-4-one] | 81.7 nM |
| CC1(C)CC(=O)c2c([nH]c(-c3ccncc3)c2Nc2ccccc2Br)C1 [Example 71, 3-[(2-bromophenyl)amino]-6,6-dimethyl-2-(pyridin-4-yl)-1,5,6,7-tetrahydro-4H-indol-4-one] | 49.7 nM |
| CC1(C)CC(=O)c2c([nH]c(-c3ccncc3)c2Nc2ccc(Br)cc2)C1 [Example 72, 3-[(4-bromophenyl)amino]-6,6-dimethyl-2-(pyridin-4-yl)-1,5,6,7-tetrahydro-4H-indol-4-one] | 47.1 nM |
| CC1(C)CC(=O)c2c([nH]c(-c3ccncc3)c2Nc2ccc3nc[nH]c3c2)C1 [Example 73, 3-(1H-benzimidazol-6-ylamino)-6,6-dimethyl-2-(pyridin-4-yl)-1,5,6,7-tetrahydro-4H-indol-4-one] | 19900 nM |
| CC1(C)CC(=O)c2c([nH]c(-c3ccncc3)c2Nc2ccc3cn[nH]c3c2)C1 [Example 74, 3-(1H-indazol-6-ylamino)-6,6-dimethyl-2-(pyridin-4-yl)-1,5,6,7-tetrahydro-4H-indol-4-one] | 82.3 nM |
| CC1(C)CC(=O)c2c([nH]c(-c3ccncc3)c2Nc2ccnc3ccccc23)C1 [Example 75, 6,6-dimethyl-2-(pyridin-4-yl)-3-(quinolin-4-ylamino)-1,5,6,7-tetrahydro-4H-indol-4-one] | 14100 nM |
| COc1ccc(OC)c(Nc2c(-c3ccncc3)[nH]c3c2C(=O)CC(C)(C)C3)c1 [Example 76, 3-[(2,5-dimethoxyphenyl)amino]-6,6-dimethyl-2-(pyridin-4-yl)-1,5,6,7-tetrahydro-4H-indol-4-one] | 4270 nM |
| CC1(C)CC(=O)c2c([nH]c(-c3ccncc3)c2Nc2cc(Cl)cc(Cl)c2)C1 [Example 77, 3-[(3,5-dichlorophenyl)amino]-6,6-dimethyl-2-(pyridin-4-yl)-1,5,6,7-tetrahydro-4H-indol-4-one] | 1550 nM |
| CC1(C)CC(=O)c2c([nH]c(-c3ccncc3)c2Nc2cc(Cl)ccc2Cl)C1 [Example 78, 3-[(2,5-dichlorophenyl)amino]-6,6-dimethyl-2-(pyridin-4-yl)-1,5,6,7-tetrahydro-4H-indol-4-one] | 6950 nM |
| CC1(C)CC(=O)c2c([nH]c(-c3ccncc3)c2Nc2cccc(C#N)c2)C1 [Example 79, 3-{[6,6-dimethyl-4-oxo-2-(pyridin-4-yl)-4,5,6,7-tetrahydro-1H-indol-3-yl]amino}benzonitrile] | 133 nM |
| CC1(C)CC(=O)c2c([nH]c(-c3ccncc3)c2Nc2cccc(OCc3ccccc3)c2)C1 [Example 80, 3-{[3-(benzyloxy)phenyl]amino}-6,6-dimethyl-2-(pyridin-4-yl)-1,5,6,7-tetrahydro-4H-indol-4-one] | 188 nM |
| Cc1cc(Nc2c(-c3ccncc3)[nH]c3c2C(=O)CC(C)(C)C3)ccc1F [Example 81, 3-[(4-fluoro-3-methylphenyl)amino]-6,6-dimethyl-2-(pyridin-4-yl)-1,5,6,7-tetrahydro-4H-indol-4-one] | 44.3 nM |
| Cc1ccc(F)c(Nc2c(-c3ccncc3)[nH]c3c2C(=O)CC(C)(C)C3)c1 [Example 82, 3-[(2-fluoro-5-methylphenyl)amino]-6,6-dimethyl-2-(pyridin-4-yl)-1,5,6,7-tetrahydro-4H-indol-4-one] | 510 nM |

| Compound | IC50 |
| --- | --- |
| CCc1ccc(Nc2c(-c3ccncc3)[nH]c3c2C(=O)CC(C)(C)C3)cc1 [Example 83, 3-[(4-ethylphenyl)amino]-6,6-dimethyl-2-(pyridin-4-yl)-1,5,6,7-tetrahydro-4H-indol-4-one] | 293 nM |
| CCc1ccccc1Nc1c(-c2ccncc2)[nH]c2c1C(=O)CC(C)(C)C2 [Example 84, 3-[(2-ethylphenyl)amino]-6,6-dimethyl-2-(pyridin-4-yl)-1,5,6,7-tetrahydro-4H-indol-4-one] | 127 nM |
| CC(C)c1cccc(Nc2c(-c3ccncc3)[nH]c3c2C(=O)CC(C)(C)C3)c1 [Example 85, 6,6-dimethyl-3-{[3-(propan-2-yl)phenyl]amino}-2-(pyridin-4-yl)-1,5,6,7-tetrahydro-4H-indol-4-one] | 73.5 nM |
| CC(C)c1ccc(Nc2c(-c3ccncc3)[nH]c3c2C(=O)CC(C)(C)C3)cc1 [Example 86, 6,6-dimethyl-3-{[4-(propan-2-yl)phenyl]amino}-2-(pyridin-4-yl)-1,5,6,7-tetrahydro-4H-indol-4-one] | 5460 nM |
| CC1(C)CC(=O)c2c([nH]c(-c3ccncc3)c2Nc2cc(Cl)ccc2F)C1 [Example 87, 3-[(5-chloro-2-fluorophenyl)amino]-6,6-dimethyl-2-(pyridin-4-yl)-1,5,6,7-tetrahydro-4H-indol-4-one] | 1780 nM |
| CC(C)c1ccccc1Nc1c(-c2ccncc2)[nH]c2c1C(=O)CC(C)(C)C2 [Example 88, 6,6-dimethyl-3-{[2-(propan-2-yl)phenyl]amino}-2-(pyridin-4-yl)-1,5,6,7-tetrahydro-4H-indol-4-one] | 2610 nM |
| CC1(C)CC(=O)c2c([nH]c(-c3ccncc3)c2Nc2cccc(O)c2)C1 [Example 89, 3-[(3-hydroxyphenyl)amino]-6,6-dimethyl-2-(pyridin-4-yl)-1,5,6,7-tetrahydro-4H-indol-4-one] | 288 nM |
| CC1(C)CC(=O)c2c([nH]c(-c3ccncc3)c2Nc2ccc([N+](=O)[O-])cc2)C1 [Example 90, 6,6-dimethyl-3-[(4-nitrophenyl)amino]-2-(pyridin-4-yl)-1,5,6,7-tetrahydro-4H-indol-4-one] | 509 nM |
| Cc1c(Cl)cccc1Nc1c(-c2ccncc2)[nH]c2c1C(=O)CC(C)(C)C2 [Example 91, 3-[(3-chloro-2-methylphenyl)amino]-6,6-dimethyl-2-(pyridin-4-yl)-1,5,6,7-tetrahydro-4H-indol-4-one] | 101 nM |
| Cc1ccc(Nc2c(-c3ccncc3)[nH]c3c2C(=O)CC(C)(C)C3)cc1Cl [Example 92, 3-[(3-chloro-4-methylphenyl)amino]-6,6-dimethyl-2-(pyridin-4-yl)-1,5,6,7-tetrahydro-4H-indol-4-one] | 296 nM |
| Cc1ccc(Cl)cc1Nc1c(-c2ccncc2)[nH]c2c1C(=O)CC(C)(C)C2 [Example 93, 3-[(5-chloro-2-methylphenyl)amino]-6,6-dimethyl-2-(pyridin-4-yl)-1,5,6,7-tetrahydro-4H-indol-4-one] | 7400 nM |
| CC1(C)CC(=O)c2c([nH]c(-c3ccncc3)c2Nc2cccc(Cl)c2F)C1 [Example 94, 3-[(3-chloro-2-fluorophenyl)amino]-6,6-dimethyl-2-(pyridin-4-yl)-1,5,6,7-tetrahydro-4H-indol-4-one] | 114 nM |
| CC1(C)CC(=O)c2c([nH]c(-c3ccncc3)c2Nc2ccc(F)c(Cl)c2)C1 [Example 95, 3-[(3-chloro-4-fluorophenyl)amino]-6,6-dimethyl-2-(pyridin-4-yl)-1,5,6,7-tetrahydro-4H-indol-4-one] | 43.7 nM |
| CC(C)C(=O)Nc1cccc(Nc2c(-c3ccncc3)[nH]c3c2C(=O)CC(C)(C)C3)c1 [Example 97, N-(3-{[6,6-dimethyl-4-oxo-2-(pyridin-4-yl)-4,5,6,7-tetrahydro-1H-indol-3-yl]amino}phenyl)-2-methylpropanamide] | 2980 nM |
| CCC(=O)Nc1cccc(Nc2c(-c3ccncc3)[nH]c3c2C(=O)CC(C)(C)C3)c1 [Example 98, N-(3-{[6,6-dimethyl-4-oxo-2-(pyridin-4-yl)-4,5,6,7-tetrahydro-1H-indol-3-yl]amino}phenyl)propanamide] | 1540 nM |
| CNC(=O)c1cccc(Nc2c(-c3ccncc3)[nH]c3c2C(=O)CC(C)(C)C3)c1 [Example 99, 3-{[6,6-dimethyl-4-oxo-2-(pyridin-4-yl)-4,5,6,7-tetrahydro-1H-indol-3-yl]amino}-N-methylbenzamide] | 2210 nM |
| CC1(C)CC(=O)c2c([nH]c(-c3ccncc3)c2Nc2ccc3[nH]ncc3c2)C1 [Example 100, 3-(1H-indazol-5-ylamino)-6,6-dimethyl-2-(pyridin-4-yl)-1,5,6,7-tetrahydro-4H-indol-4-one] | 95.2 nM |
| CC1(C)CC(=O)c2c([nH]c(-c3ccncc3)c2Nc2cccc(C(N)=O)c2)C1 [Example 101, 3-{[6,6-dimethyl-4-oxo-2-(pyridin-4-yl)-4,5,6,7-tetrahydro-1H-indol-3-yl]amino}benzamide] | 507 nM |
